# Active and inactive are the calls of the source. The calls are words filed in the database; no cut-off is given here.
# Legend:
# Staphylococcus aureus [1] = assay: microbe, parasite or virus in culture; settings: NRS123
# Description: Antimicrobial activity against methicillin-resistant Staphylococcus aureus NRS123 by broth liquid microdilution method
# Staphylococcus aureus [2] = assay: Antimicrobial activity against vancomycin-resistant Staphylococcus aureus 12 by broth liquid microdilution method; format: functional
# Staphylococcus aureus [3] = assay: Bactericidal activity against methicillin-resistant Staphylococcus aureus USA400 assessed as reduction in number of colony forming units at 5 times MIC incubated for 24 hrs by aliquots transfer to tryptic soy agar and grown for 18 to 20 hrs by Time-kill assay; format: functional, organism-based
# Listeria monocytogenes = assay: Antimicrobial activity against Listeria monocytogenes ATCC 19111 by broth liquid microdilution method; format: functional
# Staphylococcus aureus [4] = assay: Antimicrobial activity against vancomycin-resistant Staphylococcus aureus 10 by broth liquid microdilution method; format: functional
# Staphylococcus aureus [5] = assay: microbe, parasite or virus in culture; settings: NRS 107
# Description: Antimicrobial activity against methicillin-sensitive Staphylococcus aureus NRS 107 by broth liquid microdilution method
# Staphylococcus aureus [6] = assay: Antibiofilm activity against methicillin-resistant Staphylococcus aureus USA300 at 4 times MIC incubated for 24 hrs by crystal violet staining based assay relative to control; format: functional
# Streptococcus pneumoniae [7] = assay: Antimicrobial activity against methicillin-resistant Streptococcus pneumoniae ATCC 700677 by broth liquid microdilution method; format: functional
# Staphylococcus aureus [8] = assay: microbe, parasite or virus in culture; settings: ATCC 6538
# Description: Antimicrobial activity against methicillin-sensitive Staphylococcus aureus ATCC 6538 by broth liquid microdilution method
# Staphylococcus aureus [9] = assay: microbe, parasite or virus in culture; settings: NRS 385
# Description: Antimicrobial activity against methicillin-resistant Staphylococcus aureus NRS 385 by broth liquid microdilution method
# Staphylococcus aureus [10] = assay: Antibiofilm activity against methicillin-resistant Staphylococcus aureus USA300 incubated for 24 hrs by crystal violet staining based assay; format: functional, organism-based
# Streptococcus pneumoniae [11] = assay: Antimicrobial activity against cephalosporin-resistant Streptococcus pneumoniae ATCC 51916 by broth liquid microdilution method; format: functional
# Staphylococcus aureus [12] = assay: Bactericidal activity against methicillin-resistant Staphylococcus aureus USA400 assessed as 3 log reduction in number of colony forming units at 5 times MIC incubated for 10 hrs by aliquots transfer to tryptic soy agar and grown for 18 to 20 hrs by Time-kill assay relative to control; format: functional; parameters: scale not given: the % may be the effect or the level left
# Staphylococcus aureus [13] = assay: Antibiofilm activity against methicillin-resistant Staphylococcus aureus USA300 at 2 times MIC incubated for 24 hrs by crystal violet staining based assay relative to control; format: functional
# Escherichia coli [14] = assay: Antimicrobial activity against Escherichia coli JW55031 harboring deltatolC mutant by broth liquid microdilution method; format: functional
# Caco-2 = assay: Cytotoxicity against human Caco2 cells assessed as reduction in cell viability at 64 ug/ml by MTS assay relative to control
# Escherichia coli [15] = assay: Antimicrobial activity against Escherichia coli BW25113 by broth liquid microdilution method; format: functional
# Enterococcus faecalis = assay: microbe, parasite or virus in culture; settings: ATCC 51299
# Staphylococcus aureus [16] = assay: microbe, parasite or virus in culture; settings: NRS 386
# Description: Antimicrobial activity against methicillin-resistant Staphylococcus aureus NRS 386 by broth liquid microdilution method
# Enterococcus faecium = assay: Antimicrobial activity against vancomycin-resistant Enterococcus faecium ATCC 700221 by broth liquid microdilution method; format: functional
# Staphylococcus aureus [17] = assay: microbe, parasite or virus in culture; settings: NRS384
# Description: Antimicrobial activity against methicillin-resistant Staphylococcus aureus NRS384 by broth liquid microdilution method
# [18] = system: Staphylococcus epidermidis; assay: Antimicrobial activity against methicillin-resistant Staphylococcus epidermidis NRS101 by broth liquid microdilution method; format: functional
# Staphylococcus aureus [19] = assay: microbe, parasite or virus in culture; settings: NRS119
# Description: Antimicrobial activity against methicillin-resistant Staphylococcus aureus NRS119 by broth liquid microdilution method
# Staphylococcus aureus [20] = assay: Bactericidal activity against methicillin-resistant Staphylococcus aureus USA400 assessed as reduction in number of colony forming units at 5 times MIC incubated for 10 hrs by aliquots transfer to tryptic soy agar and grown for 18 to 20 hrs by Time-kill assay relative to control; format: functional; parameters: scale not given: the % may be the effect or the level left
# Staphylococcus aureus [21] = assay: Antimicrobial activity against methicillin-resistant Staphylococcus aureus USA400 infected in mouse J774 cells assessed as reduction in […] bacterial count at 2 times MIC incubated for 24 hrs relative to control; format: functional; parameters: scale not given: the % may be the effect or the level left
# J774 = assay: Cytotoxicity against mouse J774 cells assessed as reduction in cell viability at 4 to 8 ug/ml incubated for 24 hrs by MTS assay; format: cell-based; settings: j774, 24 h
# Staphylococcus aureus [22] = assay: Antimicrobial activity against methicillin-resistant Staphylococcus aureus USA400 infected in mouse J774 cells assessed as reduction in […] bacterial count at 4 times MIC incubated for 24 hrs relative to control; format: functional; parameters: scale not given: the % may be the effect or the level left
SMILES,MBC (Staphylococcus aureus [1]),MIC (Staphylococcus aureus [1]),MBC (Staphylococcus aureus [2]),MIC (Staphylococcus aureus [2]),MBC (Listeria monocytogenes),MIC (Listeria monocytogenes),MBC (Staphylococcus aureus [4]),MIC (Staphylococcus aureus [4]),MBC (Staphylococcus aureus [5]),MIC (Staphylococcus aureus [5]),Activity (Staphylococcus aureus [6]),MBC (Streptococcus pneumoniae [7]),MIC (Streptococcus pneumoniae [7]),MBC (Staphylococcus aureus [8]),MIC (Staphylococcus aureus [8]),MBC (Staphylococcus aureus [9]),MIC (Staphylococcus aureus [9]),Activity (Staphylococcus aureus [10]),MBC (Streptococcus pneumoniae [11]),MIC (Streptococcus pneumoniae [11]),further results
C/C(=N\NC(=N)N)c1sc(-c2ccc(C#CCCn3ccnc3)cc2)nc1C,8 µg/mL,4 µg/mL,16 µg/mL,4 µg/mL,32 µg/mL,8 µg/mL,8 µg/mL,4 µg/mL,8 µg/mL,4 µg/mL,81%,16 µg/mL,4 µg/mL,16 µg/mL,4 µg/mL,16 µg/mL,4 µg/mL,Dose-dependent effect,16 µg/mL,8 µg/mL,Activity (Staphylococcus aureus [3]): Active; Activity (Staphylococcus aureus [12]): 99.9%; Activity (Staphylococcus aureus [13]): 65%; MIC (Escherichia coli [14]): 16 µg/mL; Activity (Caco-2): 70%; MIC (Escherichia coli [15]): > 64 µg/mL; MBC (Enterococcus faecalis): 32 µg/mL; MIC (Enterococcus faecalis): 8 µg/mL; MBC (Staphylococcus aureus [16]): 16 µg/mL; MIC (Staphylococcus aureus [16]): 4 µg/mL; MBC (Enterococcus faecium): 16 µg/mL; MIC (Enterococcus faecium): 4 µg/mL; MBC (Staphylococcus aureus [17]): 16 µg/mL; MIC (Staphylococcus aureus [17]): 4 µg/mL; MBC [18]: 16 µg/mL; MIC [18]: 4 µg/mL; MBC (Staphylococcus aureus [19]): 32 µg/mL; MIC (Staphylococcus aureus [19]): 8 µg/mL
C/C(=N\NC(=N)N)c1sc(-c2ccc(C#CCCN3CC(O)C3)cc2)nc1C,8 µg/mL,4 µg/mL,8 µg/mL,4 µg/mL,32 µg/mL,4 µg/mL,8 µg/mL,4 µg/mL,4 µg/mL,4 µg/mL,72%,16 µg/mL,4 µg/mL,4 µg/mL,4 µg/mL,4 µg/mL,4 µg/mL,Dose-dependent effect,16 µg/mL,4 µg/mL,Activity (Staphylococcus aureus [20]): 100%; Activity (Staphylococcus aureus [21]): 55%; Activity (Staphylococcus aureus [13]): 31%; Activity (J774): Non-Toxic; MBC (Enterococcus faecalis): 16 µg/mL; MIC (Enterococcus faecalis): 8 µg/mL; MBC (Staphylococcus aureus [16]): 8 µg/mL; MIC (Staphylococcus aureus [16]): 4 µg/mL; Activity (Staphylococcus aureus [22]): 99%; MBC (Enterococcus faecium): 16 µg/mL; MIC (Enterococcus faecium): 4 µg/mL; MBC (Staphylococcus aureus [17]): 4 µg/mL; MIC (Staphylococcus aureus [17]): 4 µg/mL; MBC [18]: 16 µg/mL; MIC [18]: 2 µg/mL; MBC (Staphylococcus aureus [19]): 8 µg/mL; MIC (Staphylococcus aureus [19]): 4 µg/mL
